Experimental data: US11491227B2, “Cucurbituril-based hydrogels” (CAMBRIDGE ENTERPRISE LIMITED, priority 2012, dated 2022)

Key:
[1] = tested on: PVA-MV@CB[8]; assay: ITC second guest binding to PVA-MV in the presence of CB[8]; conditions: 25° C., 10 mM PBS buffer pH 7.0
Protocol: ITC titration experiments were carried out on a VP-ITC from Microcal Inc. at 25° C. in 10 mM sodium phosphate buffer (pH=7). In a typical experiment, the host was in the sample cell at a concentration of 0.1 mM, and the guest was in the syringe at a 10 fold higher concentration. In the case of functional polymers, the concentration used is determined from the concentration of functional monomer units in solution and not the concentration of polymer. A titration consisted of 29 consecutive injections of 2-10 mL with at least 300 s intervals between injections. The first data point was removed from the data set prior to curve fitting. Heats of dilution were checked by titration well beyond saturation or by titration of the guest into a buffer solution and subtracted from the normalized enthalpies, but relatively small in all cases. The data were analyzed with Origin 7.0 software, using the one set of sites model.
Isothermal titration calorimetry (ITC) was used for quantitative investigation of the respective binding thermodynamics for the HEC-Np and PVA-MV with CB[8]

[2] = tested on: L929 mouse broblast cells; conditions: 1 ppm; cited from earlier work

Ka [1] | Molecule | cytotoxic response [2]
(1.10 ± 0.03) × 10^5 M^−1 | Oc1ccc2ccccc2c1 [NpOH, 2-naphthol] | –
– | dibutyltin dilaurate [TDL] | does not elicit a cytotoxic response
